{
  "source": "PubChem BioAssay AID720699",
  "about": "(NMMLSC, 2013)",
  "experiment": "incubation effect on Rab7 inhibitor curves, late-stage follow-up, mechanism study, biochemical, Rab7 wildtype, bead flow cytometry, two incubation protocols (AID 720699)",
  "conditions": "Rab7 beads, Bodipy-FL-GTP binding",
  "data": [
    {"smiles": "CC1(C)Cc2c(sc(NC(=S)NC(=O)c3cccc(N=[N+]=[N-])c3)c2C(=O)O)CO1", "values": [
      {"measurement": "EC50", "setting": "protocol A", "value": 1260, "unit": "nM"},
      {"measurement": "EC50", "setting": "protocol B", "value": 1220, "unit": "nM"}
    ]},
    {"smiles": "CC1(C)Cc2c(sc(NC(=S)NC(=O)c3ccc(N=[N+]=[N-])cc3)c2C(=O)O)CO1", "values": [
      {"measurement": "EC50", "setting": "protocol A", "value": 219, "unit": "nM"},
      {"measurement": "EC50", "setting": "protocol B", "value": 172, "unit": "nM"}
    ]}
  ]
}
